Results: PMC10064330, “Reversible Dual-Covalent Molecular Locking of the 14-3-3/ERRγ Protein–Protein Interaction as a Molecular Glue Drug Discovery Approach” (Journal of the American Chemical Society, 2023)

Molecular target: T1, 14-3-3γ/RND3 complex (Homo sapiens, UniProt P61587+P61981)
T1 construct: RND3 pS240, PDB 8BFC; made in house; host or cells: E. coli NiCo21 (DE3)
Test: FA / TD-FA selectivity screen, RND3 client peptide
Format: binding
Details: 100 μM compound; for effect on RND3 binding to 14-3-3γ over time / effect on 14-3-3γ/RND3 complex at short time lengths: TD-FA
Method: Drugging the hub protein 14-3-3 raises the challenge of selectivity, given that 14-3-3 binds several hundred phosphoprotein partners (Figure 4a).[54] We hypothesized that the interplay of chemical reactivity, the topology, and functionality of the composite binding pocket shaped by 14-3-3 and the interaction partner drives selective stabilization of the 14-3-3/ERRγ complex.[53] To validate selectivity, molecular locks 5 and 10 were tested against a panel of nine 14-3-3 client peptides in an FA assay, and the SF100 was determined for each 14-3-3 PPI (Figure 4b and Figures S18–S20). This client panel contained a diverse representation of 14-3-3 binding proteins, differing for example in size and hydrophobicity of the +1 amino acid. Importantly, clients PKR and RND3, each containing a +1 Cys, were included in the panel.
To further assess off-target reactivity to +1 Cys-containing peptides, fragment 1, locks 5 and 10 were also screened against PKR and RND3 in the TD-FA assay.
Figure S20. KD and SF100 plot – selectivity screen. […]
nine different client peptides in presence of DMSO (negative control) or 100 µM of compound 1, 5 or 10 (based on binding curves in Figure S19). Also a bar plot representation of stabilization factor (SF100) of compounds 1, 5 and 10 for each of these peptides (bottom plot).
(1 picture or pasted object on this page, not shown here)
Experimental Section Biophysical Assays
14-3-3γ protein expression (FA, TSA, MS assays)
A pPROEX HTb expression vector encoding the human 14-3-3 protein gamma (14-3-3γ) with a N-terminal his6-tag was transformed by heat shock into NiCo21 (DE3) competent cells. Single colonies were cultured in 50 mL LB medium (100 µg/mL ampicillin). After overnight incubation at 37 °C, cultures were transferred to 2 L TB media (100 µg/mL ampicillin, 1 mM MgCl2) and incubated at 37 °C until an OD600 nm of 0.8 -1.2 was reached. Protein expression was then induced with 0.4 mM isopropyl-β-d-thiogalactoside (IPTG), and cultures were incubated overnight at 18 °C. Cells were harvested by centrifugation (8600 rpm, 20 minu tes, 4 °C) and resuspended in lysis buffer (50 mM Hepes, pH 8.0, 300 mM NaCl, 12.5 mM imidazole, 5 mM MgCl2, 2 mM βME) containing cOmplete™ EDTA-free Protease Inhibitor Cocktail tablets (1 tablet/100 ml lysate) and benzonase ( 5 µl/100 ml). After lysis using a C3 Emulsiflex-C3 homogenizer (Avestin), the cell lysate was cleared by centrifugation (20000 rpm, 30 minutes, 4 °C) and purified using Ni2+-affinity chromatography (Ni -NTA superflow cartridges, Qiagen). Typically two 5 mL columns (flow 5 mL/min) were use d for a 2 L culture in which the lysate was loaded on the column , washed with 10 CV wash buffer (50 mM Hepes, pH 8.0, 300 mM NaCl, 25 mM imidazole, 2 mM βME), and eluted in several fractions (2-4 CV) of elution buffer (50 mM Hepes, pH 8.0, 300 mM NaCl, 250 mM imidazole, 2 mM βME). Fractions containing the 14 -3-3 protein were combined and dialyzed into 25 mM HEPES pH 8.0, 100 mM NaCl, 10 mM MgCl2, 500 µM TCEP. Finally, the protein was concentrated to ∼60 mg/mL, analyzed Q-Tof LC/MS, and aliquots were flash-frozen for storage at −80 °C.
14-3-3σΔc C38N protein expression (Crystallography)
A pPROEX HTb expression vector encoding the human 14-3-3 protein sigma truncated after T231 (14-3-3σΔc), mutated C38N, and containing a N-terminal his6-tag was transformed by heat shock into NiCo21 (DE3) competent cells. Single colonies were cultured in 50 mL LB medium (100 µg/mL ampicillin). After overnight incubation at 37 °C, cultures were transferred to 2 L TB media (100 µg/mL ampicillin, 1 mM MgCl2) and incubated at 37 °C until an OD600 nm of 0.8-1.2 was reached. Protein expression was then induced with 0.4 mM isopropyl-β-d-thiogalactoside (IPTG), and cultures were incubated overnight at 18 °C. Cells were harvested by centrifugation (8600 rpm, 20 minutes, 4 °C) and resuspended in lysis buffer (50 mM Hepes, pH 8.0, 300 mM NaCl, 12.5 mM […]

T1 sequence (P61981 whole entry, other chains not shown): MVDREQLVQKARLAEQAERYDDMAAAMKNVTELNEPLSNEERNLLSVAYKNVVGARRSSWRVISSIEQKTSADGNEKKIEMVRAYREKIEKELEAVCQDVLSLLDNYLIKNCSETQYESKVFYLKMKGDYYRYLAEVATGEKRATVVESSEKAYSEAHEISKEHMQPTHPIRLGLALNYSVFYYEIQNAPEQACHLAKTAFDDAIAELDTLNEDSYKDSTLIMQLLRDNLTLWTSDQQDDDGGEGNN

Compound | effect on RND3 binding to 14-3-3γ over time | effect on 14-3-3γ/RND3 complex at short time lengths | SF100 (RND3 peptide)
CN(C)CCSSCCN(C)C(=O)c1cccc(F)c1 [compound 1, reference compound] | remains an inhibitor | immediate destabilization | –
CN(C)CCSSCCN(C)C(=O)c1cc(Br)cc(C=O)c1 [compound 10] | enhancement in RND3 binding | immediate destabilization | ~7.9
CN(C)CCSSCCN(C)C(=O)c1ccc(C=O)c(F)c1 [compound 5] | – | immediate destabilization | –
